Source: US20190322643A1 (Georgia State University Research Foundation, Inc., priority 2016, published 2019)

Experiments:
HCT-8 = assay: Cytotoxicity / anti-proliferation assay (CCK-8), HCT-8; type: cell-based; details: Homo sapiens, 72 h, CCK-8 kit
Description: (§1) Then the cells were exposed to the different inhibitors with various concentrations for 72 h. […] EC50s were calculated using GraphPad Prizm statistical package with sigmoidal variable slope dose response curve fit.
(§2) Cell anti-proliferation assays were performed to determine the toxicity of these inhibitors. […] These compounds were further evaluated against the control cell line HEK293 to test their toxicity with a non-cancerous cell line.

MDA-MB-231 = assay: Cytotoxicity / anti-proliferation assay (CCK-8), MDA-MB-231; type: cell-based; details: Homo sapiens, 72 h, CCK-8 kit, read-out: EC50 MDA-MB-231
Description: A549, MDA-MB-231, HCT-8, MCF-7, and HEK293 cells were seeded at 8000-10000 cells (100 μl) in white 96-well plates and pre-incubate the plate for 24 h under standard cell culture conditions, respectively. Then the cells were exposed to the different inhibitors with various concentrations for 72 h. Finally, 10 μl of CCK-8 kit solution was added to each well and incubated for 3-4 hours under standard cell culture conditions, and the 96 well plates were measured the absorbance at 450 nm using Perkin-Elmer Wallac Victor ^3V 1420 multi label plate reader (Perkin-Elmer, Wellesley, USA). EC50s were calculated using GraphPad Prizm statistical package with sigmoidal variable slope dose response curve fit.
as §2, with “inhibitors. Several cell lines (MDA-MB-231, MCF-7, A549 and HCT-8) were incubated and then treated with varying concentrations of the inhibitors for 72 h, respectively.” for “inhibitors.”

G9a = target: T1, G9a (Homo sapiens, UniProt Q96KQ7); assay: H3K9Me2 cell immunofluorescence in-cell Western (ICW) assay; type: cell-based; details: MDA-MB-231 cell line, 48 h
T1 construct: endogenous in cells; host or cells: MDA-MB-231
T1 sequence (Q96KQ7 1-1210): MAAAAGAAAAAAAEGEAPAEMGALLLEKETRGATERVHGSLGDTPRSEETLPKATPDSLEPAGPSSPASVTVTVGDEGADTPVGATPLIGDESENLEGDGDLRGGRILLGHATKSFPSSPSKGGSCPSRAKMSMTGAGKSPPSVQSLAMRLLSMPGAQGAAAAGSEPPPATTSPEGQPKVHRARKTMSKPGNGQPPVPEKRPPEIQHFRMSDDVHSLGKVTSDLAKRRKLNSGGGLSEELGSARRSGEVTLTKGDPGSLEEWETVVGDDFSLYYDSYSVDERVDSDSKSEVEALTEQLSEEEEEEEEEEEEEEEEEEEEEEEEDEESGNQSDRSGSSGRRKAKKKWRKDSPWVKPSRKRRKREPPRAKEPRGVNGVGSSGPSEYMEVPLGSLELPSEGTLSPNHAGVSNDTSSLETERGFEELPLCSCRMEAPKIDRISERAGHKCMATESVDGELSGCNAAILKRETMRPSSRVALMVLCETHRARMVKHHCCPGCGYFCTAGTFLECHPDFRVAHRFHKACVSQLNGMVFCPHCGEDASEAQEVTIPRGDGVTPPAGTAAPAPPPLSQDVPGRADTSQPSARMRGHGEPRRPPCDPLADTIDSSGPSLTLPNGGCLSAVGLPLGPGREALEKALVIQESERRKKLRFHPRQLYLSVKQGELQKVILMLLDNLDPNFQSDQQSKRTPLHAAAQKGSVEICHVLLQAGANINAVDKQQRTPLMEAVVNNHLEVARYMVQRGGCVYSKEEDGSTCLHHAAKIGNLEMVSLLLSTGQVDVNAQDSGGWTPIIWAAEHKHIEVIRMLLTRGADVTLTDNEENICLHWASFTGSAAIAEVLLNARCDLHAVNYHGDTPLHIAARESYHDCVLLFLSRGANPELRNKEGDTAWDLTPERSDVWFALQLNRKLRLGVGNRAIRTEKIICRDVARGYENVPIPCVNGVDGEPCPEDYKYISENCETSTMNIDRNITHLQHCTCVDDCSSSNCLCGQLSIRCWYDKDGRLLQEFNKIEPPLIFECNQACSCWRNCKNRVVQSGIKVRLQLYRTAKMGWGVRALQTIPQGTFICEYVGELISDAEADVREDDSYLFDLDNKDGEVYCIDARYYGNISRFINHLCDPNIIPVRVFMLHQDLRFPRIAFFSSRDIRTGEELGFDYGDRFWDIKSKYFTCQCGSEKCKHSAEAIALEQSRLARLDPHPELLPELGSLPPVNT

MCF-7 = assay: Cytotoxicity / anti-proliferation assay (CCK-8), MCF-7; type: cell-based; details: Homo sapiens, MCF7; 72 h, CCK-8 kit
Description: as §1, §2

HDAC [1] = assay: Cell based homogenous HDAC assay, Hela; details: read-out: IC50-HDAC Hela; Hela cells, mean ± SD of triplicate
Description: (§3) After 24 h, 9 μl inhibitors with different concentration were added to the HeLa cells and incubation was continued for 3 h under cell culture conditions. After this treatment period, 10 μl of a 2 mM stock solution of the substrate Boc-K(Ac)-AMC was added into the 96 well plates with Hela cells and inhibitors. […] A549 and K562 cell lines used the same method, respectively. IC50s were calculated using GraphPad Prizm statistical package with sigmoidal variable slope dose response curve fit.
(§4) Boc-K(Ac)-AMC was used as a cell-permeable HDAC substrate, as after deacetylation it is cleaved by trypsin to release the florescent 7-amino-4-methylcoumarin (AMC).

A549 = assay: Cytotoxicity / anti-proliferation assay (CCK-8), A549; type: cell-based; details: Homo sapiens, 72 h, CCK-8 kit
Description: as §1, §2

HDAC [2] = assay: Cell based homogenous HDAC assay, K562; details: read-out: IC50-HDAC K562; K562 cells, mean ± SD of triplicate
Description: as §3, §4

HDAC [3] = assay: Cell based homogenous HDAC assay, A549; details: read-out: IC50-HDAC A549; A549 cells, mean ± SD of triplicate
Description: as §3, §4

IC50 (G9a): > 100 µM | IC50 (HDAC [1]): > 100 µM | IC50 (HDAC [2]): > 100 µM | IC50 (HDAC [3]): > 100 µM
SMILES: CN1CCCN(c2nc(NC3CCN(Cc4ccccc4)CC3)c3ccc(OCCCCCCC(=O)NO)cc3n2)CC1 [Compound 30]
EC50 (HCT-8): > 100 µM | EC50 (MDA-MB-231): 24 ± 3.64 µM | EC50 (MCF-7): > 100 µM | EC50 (A549): > 100 µM
